The values below come from patent US9045431B2, “Processes for the preparation of 5-HT2C receptor agonists” (Arena Pharmaceuticals, Inc., priority 2010, dated 2015).

Structures are written as SMILES. Entries after “also recorded” stand apart in the source; their conditions may differ.

Series [1] in a line: Dynamic moisture sorption (DMS). In kind it is physicochemical. Conditions: for DMS result (hygroscopicity / form conversion): isotherm 25° C., 10% RH to 90% or 95% RH. The protocol:
Dynamic moisture-sorption (DMS) studies were conducted using a dynamic moisture-sorption analyzer, VTI Corporation, SGA-100. Samples were prepared for DMS analysis by placing 5 mg to 20 mg of a compound or a salt thereof in a tared sample holder. The sample was placed on the hang-down wire of the VTI balance. A drying step was run, typically at 40° C. and 0.5-1% RH for 1-2 h. The isotherm temperature is 25° C. Defined % RH holds typically ranged from 10% RH to 90% RH or 95% RH, with intervals of 10 to 20% RH. A % weight change smaller than 0.010% over a specified number of minutes (typically 10-20), or up to 2 h, whichever occurs first, is required before continuing to the next % RH hold. The water content of the sample equilibrated as described above was determined at each % RH hold.

Series [2] is described as follows: Competitive slurry experiments / solution-mediated phase transformation (thermodynamic stability of crystal forms). To be noted: for relative thermodynamic stability among the anhydrous polymorphs: ambient / room temperature. It is filed as physicochemical. An excerpt: The thermodynamic relationships between the Compound 1 hydrochloride salt hemihydrate Form III and the anhydrous polymorphs of Compound 1 hydrochloride salt were established by competitive slurry experiments in acetonitrile and acetone at various aw, values.
At the critical aw, a given anhydrous form and Compound 1 hydrochloride salt hemihydrate Form III will have equal solubility and can coexist in equilibrium. Below the critical aw, the anhydrous form is more thermodynamically stable, thus less soluble. Above the critical water activity, Compound 1 hydrochloride salt hemihydrate Form III is more thermodynamically stable, thus less soluble. Solids from the competitive slurry experiments were identified by PXRD. Slurries with known aw values were used instead of humidity chambers because solution-mediated phase transformations (SMPTs) are much faster than vapor-mediated phase transformations, especially near the critical aw. […] FIG. 16 illustrates the critical aw of form Compound 1 hydrochloride salt hemihydrate Form III, with respect to Compound 1 hydrochloride salt Form I, and Compound 1 hydrochloride salt, IV.
For enantiotropic polymorphs, the temperature that marks the point at which two polymorphs have the same thermodynamic stability is called the transition temperature (Tt).

For series [3] the following is noted: cited from earlier work; for reported side effect: in some patients.
For series [4] the following is noted: cited from earlier work.
The mark [5] stands for this setting: pivotal phase 3 program, treated for up to two years, fraction of patients.
The mark [6] stands for this setting: pivotal phase 3 program, up to two years.
The mark [7] stands for this setting: second phase 3 trial, top quartile.

On to `C[C@H]1CNCCc2ccc(Cl)cc21.C[C@H]1CNCCc2ccc(Cl)cc21.Cl.Cl.O` [(R)-8-Chloro-1-methyl-2,3,4,5-tetrahydro-1H-3-benzazepine Hydrochloride Hemihydrate Form III], for which the “change in crystalline form by PXRD after the DVS cycle” value in series [1] (after DVS cycle) is “no change”. The “water adsorbed in DMS” value in series [1] (at 90% RH) was “less than 0.5 wt %”. In addition, the “DMS result (hygroscopicity / form conversion)” value in series [1] was “substantially non-hygroscopic”; in series [1] (listed as Compound 1 Hydrochloride Salt Hemihydrate, Form III), “FIG. 11: non-hygroscopic”.
In the case of `C[C@H]1CNCCc2ccc(Cl)cc21.Cl` [Compound 1 hydrochloride salt Form I, (R)-8-Chloro-1-methyl-2,3,4,5-tetrahydro-1H-3-benzazepine Hydrochloride Salt Form I], the “DMS result (hygroscopicity / form conversion)” value in series [1] is “complete conversion to Compound 1 hydrochloride hemihydrate Form III”; in series [1] (listed as Compound 1 Hydrochloride Salt Form I) it was “FIG. 3: Converts to Form III hemihydrate”.
In the case of `C[C@H]1CNCCc2ccc(Cl)cc21.Cl` [Compound 1 hydrochloride salt Form II, (R)-8-Chloro-1-methyl-2,3,4,5-tetrahydro-1H-3-benzazepine Hydrochloride Salt Form II], the figures for the “DMS result (hygroscopicity / form conversion)” value in series [1] and in series [1] (listed as Compound 1 Hydrochloride Salt Form II) were “converting to the hemihydrate Form III” and “FIG. 7: Converts to Form III hemihydrate”, respectively. Moreover, in series [2], the “relative thermodynamic stability among the anhydrous polymorphs” value was “least stable anhydrous polymorph”.
In the case of `C[C@H]1CNCCc2ccc(Cl)cc21.Cl` [Compound 1 hydrochloride salt Form IV, (R)-8-Chloro-1-methyl-2,3,4,5-tetrahydro-1H-3-benzazepine Hydrochloride Salt Form IV], the “DMS result (hygroscopicity / form conversion)” value in series [1] is “converting to Compound 1 hydrochloride salt Form III”; in series [1] (listed as Compound 1 Hydrochloride Salt Form IV), “FIG. 14: Converts to hemihydrate”. Moreover, the “relative thermodynamic stability among the anhydrous polymorphs” value in series [2] is listed as “most stable of the three anhydrous polymorphs; also recorded: more stable than Compound 1 hydrochloride salt Form I”. Besides, in series [2] (ambient temperature), the “relative humidity at which the form is not thermodynamically favored over hemihydrate Form III” value was at least 20 % RH.
`CC(C)CC(N(C)C)C1(c2ccc(Cl)cc2)CCC1` (stereo not drawn) [Sibutramine]: the reported side effect entry in series [3] is “raised blood pressure”.
For `CCCCCCCCCCC[C@@H](C[C@@H]1OC(=O)[C@H]1CCCCCC)OC(=O)[C@H](CC(C)C)NC=O` [Xenical™, Orlistat], the reported side effect result in series [3] is given as “gastrointestinal distress”.
Turning to `CCN[C@@H](C)Cc1cccc(C(F)(F)F)c1` [d-fenfluramine], the “cardiac valve defects, fraction of patients” value in series [3] (reports that led to withdrawal by the FDA in 1998) is reported as “up to one third”.
As for `C[C@H]1CNCCc2ccc(Cl)cc21.Cl` [lorcaserin, (R)-8-Chloro-1-methyl-2,3,4,5-tetrahydro-1H-3-benzazepine hydrochloride], in series [4] (clinical program), the “adverse event that exceeded the placebo rate by 5%” value is given as “generally mild or moderate, transient headache”; the “depression or suicidal ideation” value is “no signal”; the “heart rate and blood pressure” value is “went down”; the quality of life entry is “improved”. For the same compound, the “risk of cardiac valvulopathy” value in series [4] (clinical program) is on record as “did not increase”. Further, in series [4] (compared to placebo), the “secondary endpoints (body composition, lipids, cardiovascular risk factors, glycemic parameters)” value is “improved compared to placebo”. In addition, the “excess body weight lost” value in series [4] (first phase 3 trial, based on a normal BMI of 25, fraction of excess body weight) was “about one-third”. The “average weight lost, of their weight” value in series [4] (pivotal phase 3 program, on average) was “about 8%”. Besides, in series [4] (setting [5]), the “patients who achieved at least 5% weight loss” value is reported as “About two-thirds” and the “patients who achieved at least 10% weight loss” value is “over one-third”. In series [4] (setting [6]), the tolerability entry is recorded as “excellent tolerability” and the “weight loss (in words)” value was “significant weight loss”. Besides, in series [4] (setting [7]), the “average weight loss, top quartile of patients” value is 35 pounds and the “average weight loss, top quartile of patients, of body weight” value is listed as 16%.
